In one experiment the target is T1, GR (Rattus norvegicus, UniProt P06536).
T1 construct: expressed in transfected cells; gift of Keith Yamamoto
T1 sequence (P06536 1-795): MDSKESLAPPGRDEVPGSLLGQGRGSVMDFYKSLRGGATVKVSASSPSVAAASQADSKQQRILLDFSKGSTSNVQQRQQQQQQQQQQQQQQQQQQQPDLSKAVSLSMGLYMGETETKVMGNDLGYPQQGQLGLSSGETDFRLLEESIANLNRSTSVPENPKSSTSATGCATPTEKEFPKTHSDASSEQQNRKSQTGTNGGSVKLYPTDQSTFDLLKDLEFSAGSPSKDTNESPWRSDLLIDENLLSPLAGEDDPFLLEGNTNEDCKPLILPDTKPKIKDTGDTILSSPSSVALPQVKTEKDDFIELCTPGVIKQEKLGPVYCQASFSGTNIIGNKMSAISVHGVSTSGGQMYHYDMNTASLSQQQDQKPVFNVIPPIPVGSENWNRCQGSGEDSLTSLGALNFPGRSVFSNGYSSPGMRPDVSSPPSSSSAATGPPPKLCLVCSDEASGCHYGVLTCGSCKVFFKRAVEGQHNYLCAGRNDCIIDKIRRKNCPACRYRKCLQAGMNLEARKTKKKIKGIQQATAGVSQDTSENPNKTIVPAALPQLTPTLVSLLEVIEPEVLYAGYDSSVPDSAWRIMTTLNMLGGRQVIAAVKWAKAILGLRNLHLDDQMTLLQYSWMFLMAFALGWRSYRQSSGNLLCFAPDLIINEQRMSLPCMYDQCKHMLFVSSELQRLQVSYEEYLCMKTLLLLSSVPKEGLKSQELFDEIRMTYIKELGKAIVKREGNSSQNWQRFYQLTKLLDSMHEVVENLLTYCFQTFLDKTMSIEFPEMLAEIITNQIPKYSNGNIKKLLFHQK
In words: AP-1 repression luciferase assay in U2OS cells stably transfected with rat GR. Type of experiment: cell-based. The settings on record: Table 5, TPA-stimulated U2OS cells; for pEC50: read-out: Repression AP-1 pot (EC50); for Emax: U2OS, 12 h, read-out: Repression AP-1 % max repression. The procedure:
For API repression assays, U2OS cells stably transfected with rat GR were grown in similar media as for CV-1 cells with the exception of the FBS concentration, which was 10% and the only antibiotic was […]. Cells were plated and transfected in a similar fashion, except for plasmids, which in this case were 50 ng/well AP1-Luc and 10 ng/well β-galactosidase. Post-transfection, cells were incubated with either 50 ng/mL TPA (Phorbol 12-myristate 13-acetate), or 50 ng/mL TPA and various hormone dilutions in 10% charcoal treated FBS media. The cells were incubated for 12 h, and the lysis, β-galactosidase assay, and luciferase assay were performed as previously described.

Experiment [1] concerns the target T2, glucocorticoid receptor (GR) (Homo sapiens, UniProt P04150).
T2 construct: purchased Panvera Corp, Madison, Wis
T2 sequence (P04150 1-777): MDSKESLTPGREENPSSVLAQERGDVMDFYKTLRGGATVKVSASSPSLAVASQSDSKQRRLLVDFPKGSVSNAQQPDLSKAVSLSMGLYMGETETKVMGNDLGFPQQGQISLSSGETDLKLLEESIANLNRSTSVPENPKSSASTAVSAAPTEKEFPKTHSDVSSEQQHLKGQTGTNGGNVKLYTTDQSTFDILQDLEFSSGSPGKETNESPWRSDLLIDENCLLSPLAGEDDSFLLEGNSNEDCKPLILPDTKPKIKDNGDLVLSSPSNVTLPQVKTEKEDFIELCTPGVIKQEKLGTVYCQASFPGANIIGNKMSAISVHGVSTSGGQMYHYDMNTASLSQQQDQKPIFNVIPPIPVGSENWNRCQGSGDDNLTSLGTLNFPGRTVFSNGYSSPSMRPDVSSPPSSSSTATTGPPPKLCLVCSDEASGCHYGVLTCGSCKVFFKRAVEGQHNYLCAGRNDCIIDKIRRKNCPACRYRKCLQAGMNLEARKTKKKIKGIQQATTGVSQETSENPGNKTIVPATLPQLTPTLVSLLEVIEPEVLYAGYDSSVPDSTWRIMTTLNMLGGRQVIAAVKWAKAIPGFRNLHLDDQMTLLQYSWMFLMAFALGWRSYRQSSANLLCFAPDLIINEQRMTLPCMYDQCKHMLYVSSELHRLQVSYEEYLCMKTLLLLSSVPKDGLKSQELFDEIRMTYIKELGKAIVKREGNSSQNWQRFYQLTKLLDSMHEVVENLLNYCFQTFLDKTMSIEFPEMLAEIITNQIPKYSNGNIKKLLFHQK
Put plainly: Glucocorticoid Receptor Competitor Assay Kit (Panvera) ligand binding. The settings on record: relative binding affinity, dexamethasone = 100; for GR binding RBA (dex = 100): Table 3. An excerpt: The Glucocorticoid Receptor Competitor Assay Kit (Panvera Corp, Madison, Wis.) was used for ligand binding studies. The recommended room temperature protocol was followed for all assayed ligands.

In a further experiment the target is T3, PR (Homo sapiens, UniProt P06401).
T3 sequence (P06401 1-933): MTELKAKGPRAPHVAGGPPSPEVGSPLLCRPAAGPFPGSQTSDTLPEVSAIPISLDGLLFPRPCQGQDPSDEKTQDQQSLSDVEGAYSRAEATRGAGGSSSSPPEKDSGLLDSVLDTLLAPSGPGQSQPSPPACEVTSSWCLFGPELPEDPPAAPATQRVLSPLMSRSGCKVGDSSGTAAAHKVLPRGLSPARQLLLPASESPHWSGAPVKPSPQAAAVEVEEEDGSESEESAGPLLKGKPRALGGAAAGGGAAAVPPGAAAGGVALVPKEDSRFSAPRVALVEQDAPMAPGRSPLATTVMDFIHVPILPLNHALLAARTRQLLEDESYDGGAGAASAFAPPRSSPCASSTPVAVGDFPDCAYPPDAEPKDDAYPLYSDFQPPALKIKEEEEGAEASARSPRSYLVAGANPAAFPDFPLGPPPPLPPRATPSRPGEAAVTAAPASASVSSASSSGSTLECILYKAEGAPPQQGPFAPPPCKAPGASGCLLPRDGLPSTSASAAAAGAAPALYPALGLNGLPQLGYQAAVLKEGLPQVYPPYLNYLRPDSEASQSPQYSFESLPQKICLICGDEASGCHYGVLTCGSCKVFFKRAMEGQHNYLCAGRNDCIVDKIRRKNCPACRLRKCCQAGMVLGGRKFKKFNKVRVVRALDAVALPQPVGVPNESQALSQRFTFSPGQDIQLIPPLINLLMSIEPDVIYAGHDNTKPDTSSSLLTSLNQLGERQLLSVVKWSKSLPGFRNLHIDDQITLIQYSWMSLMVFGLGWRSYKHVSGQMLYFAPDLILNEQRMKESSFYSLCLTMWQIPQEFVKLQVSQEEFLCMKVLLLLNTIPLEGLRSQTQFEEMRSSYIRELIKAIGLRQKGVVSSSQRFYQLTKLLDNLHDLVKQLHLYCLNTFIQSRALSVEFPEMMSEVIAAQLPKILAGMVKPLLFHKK
In words: PR activation (max fold activation). Type of experiment: cell-based. The conditions noted are these: Table 4.

pEC50: −log10 of the molar value. “And” between values parts separate entries of the source, which are not always exact repeats. Equal values may be shown once.

Experimental findings from US7947726B2, “Non-steroidal ligands for the glucocorticoid receptor, and compositions thereof” (The Regents of the University of California, priority 2002, dated 2011) are described below.

The pEC50 is the negative decadic logarithm of the EC50, by convention in mol/L.

Consider `Cc1cc(O)cc(C)c1C(O)C1CCCC2=Cc3c(cnn3-c3ccc(F)cc3)CC21C` (centres unmarked) [Compound 227, 4-{[1-(4-Fluoro-phenyl)-4a-methyl-4,4a,5,6,7,8-hexahydro-1H-benzo[f]indazol-5-yl]-hydroxy-methyl}-3,5-dimethyl-phenol], for which, on GR, the negative logarithm of the EC50 (pEC50) was 8.22 and the Emax was found to be 77%. For the same compound, in experiment [1] (Table 1), the “GR Binding RBA (dexamethasone = 100)” value was 50. Moreover, the “GR binding RBA (dex = 100)” value in experiment [1] worked out at 103. The “PR max fold activation” value at PR came out at 144 ± 32.
`CC12Cc3cnn(-c4ccc(F)cc4)c3C=C1CCCC2C(O)c1cccc2[nH]ccc12` (centres unmarked) [Compound 237, [1-(4-Fluoro-phenyl)-4a-methyl-4,4a,5,6,7,8-hexahydro-1H-benzo[f]indazol-5-yl]-(1H-indol-4-yl)-methanol]: on GR, the pEC50 was 8.31 and the Emax is 80%. In addition, in experiment [1], the “GR binding RBA (dex = 100)” value amounted to 110.
For `CC12Cc3cnn(-c4ccc(F)cc4)c3C=C1CCCC2C(O)c1ccsc1` (centres unmarked) [Compound 238, [1-(4-Fluoro-phenyl)-4a-methyl-4,4a-5,6,7,8-hexahydro-1H-benzo[f]indazol-5-yl]-thiophen-3-yl-methanol], at GR, the pEC50 is 7.72 and 7.83; the Emax was 75%. Also, at PR, the “PR max fold activation” value was 155 ± 32 and 109 ± 10.
